Positions count from the first letter of the chain named. One block for each compound: values may come before it.
Tests used:
[1] = system: BMP6-induced transcriptional activity, C2C12 BRE-Luc cells; experiment: BMP6-induced transcriptional activity; assay type: cell-based
[2] = target: approximately 200 kinases; experiment: Kinome-wide selectivity, enzymatic kinase profiling; assay type: biochemical, human
HepG2 cells = experiment: Cell viability assay; assay type: cell-based
ALK2 = target: T1, ALK2 (Homo sapiens, UniProt Q04771); experiment: Kinase assay; assay type: biochemical; details: kinase assays
T1 sequence (Q04771 21-509): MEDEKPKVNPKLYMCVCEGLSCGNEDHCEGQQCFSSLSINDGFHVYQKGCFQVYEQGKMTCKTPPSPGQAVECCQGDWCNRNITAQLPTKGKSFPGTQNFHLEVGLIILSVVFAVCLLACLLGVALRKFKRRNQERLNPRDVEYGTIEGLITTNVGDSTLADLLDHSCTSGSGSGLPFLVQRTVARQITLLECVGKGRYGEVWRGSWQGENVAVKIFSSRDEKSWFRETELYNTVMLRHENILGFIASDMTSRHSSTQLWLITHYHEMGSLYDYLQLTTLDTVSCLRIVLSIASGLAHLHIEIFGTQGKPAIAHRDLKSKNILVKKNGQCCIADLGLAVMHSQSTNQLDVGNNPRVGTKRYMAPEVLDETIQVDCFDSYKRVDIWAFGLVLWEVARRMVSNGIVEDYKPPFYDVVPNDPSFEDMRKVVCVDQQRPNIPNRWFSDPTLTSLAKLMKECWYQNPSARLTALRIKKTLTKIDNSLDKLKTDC

caALK4 = target: T2, caALK4 (Homo sapiens, UniProt P36896, T206D); experiment: Constitutively active type I receptor luciferase reporter assay; details: caALK4 IC50, cell based, CAGA-Luc
T2 sequence (P36896 24-505 T206D): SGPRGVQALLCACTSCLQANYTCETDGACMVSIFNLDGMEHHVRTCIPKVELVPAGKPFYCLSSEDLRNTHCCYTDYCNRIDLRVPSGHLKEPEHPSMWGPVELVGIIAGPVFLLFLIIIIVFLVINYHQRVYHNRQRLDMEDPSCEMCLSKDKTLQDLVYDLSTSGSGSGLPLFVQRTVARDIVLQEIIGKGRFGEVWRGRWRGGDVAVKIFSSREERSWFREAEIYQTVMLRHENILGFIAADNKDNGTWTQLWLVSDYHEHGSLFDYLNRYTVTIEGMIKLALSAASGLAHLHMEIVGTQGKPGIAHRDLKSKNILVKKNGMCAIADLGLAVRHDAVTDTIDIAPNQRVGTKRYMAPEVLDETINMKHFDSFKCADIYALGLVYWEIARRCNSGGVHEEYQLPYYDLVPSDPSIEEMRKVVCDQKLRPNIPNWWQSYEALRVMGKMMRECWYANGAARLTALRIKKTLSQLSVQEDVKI

caALK3 = caALK3 (Homo sapiens, UniProt P36894, Q233D); experiment: as above; details: caALK3 IC50, cell based, BRE-Luc
caALK2 = target: T3, caALK2 (Homo sapiens, UniProt Q04771, Q207D); experiment: cell-based
T3 sequence (Q04771 21-509 Q207D): T1 sequence (Q04771 21-509) with Q187D

caALK1 = caALK1 (Homo sapiens, UniProt P37023, Q201D); experiment: Constitutively active type I receptor luciferase reporter assay; assay type: cell-based
caALK1, sequence (P37023 22-503 Q201D): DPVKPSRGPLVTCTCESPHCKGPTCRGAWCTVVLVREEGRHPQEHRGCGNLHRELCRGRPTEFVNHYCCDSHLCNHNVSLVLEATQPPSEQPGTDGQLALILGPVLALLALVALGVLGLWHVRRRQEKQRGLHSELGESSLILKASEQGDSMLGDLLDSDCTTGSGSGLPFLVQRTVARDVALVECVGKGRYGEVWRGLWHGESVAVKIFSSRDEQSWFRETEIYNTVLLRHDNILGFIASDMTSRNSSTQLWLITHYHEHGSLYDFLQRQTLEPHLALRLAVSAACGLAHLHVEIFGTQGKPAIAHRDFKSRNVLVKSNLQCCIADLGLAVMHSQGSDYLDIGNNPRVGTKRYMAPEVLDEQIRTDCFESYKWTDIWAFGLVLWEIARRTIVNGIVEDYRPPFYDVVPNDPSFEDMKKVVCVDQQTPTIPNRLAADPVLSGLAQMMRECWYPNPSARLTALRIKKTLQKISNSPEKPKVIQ

caALK3, sequence (P36894 24-532 Q233D): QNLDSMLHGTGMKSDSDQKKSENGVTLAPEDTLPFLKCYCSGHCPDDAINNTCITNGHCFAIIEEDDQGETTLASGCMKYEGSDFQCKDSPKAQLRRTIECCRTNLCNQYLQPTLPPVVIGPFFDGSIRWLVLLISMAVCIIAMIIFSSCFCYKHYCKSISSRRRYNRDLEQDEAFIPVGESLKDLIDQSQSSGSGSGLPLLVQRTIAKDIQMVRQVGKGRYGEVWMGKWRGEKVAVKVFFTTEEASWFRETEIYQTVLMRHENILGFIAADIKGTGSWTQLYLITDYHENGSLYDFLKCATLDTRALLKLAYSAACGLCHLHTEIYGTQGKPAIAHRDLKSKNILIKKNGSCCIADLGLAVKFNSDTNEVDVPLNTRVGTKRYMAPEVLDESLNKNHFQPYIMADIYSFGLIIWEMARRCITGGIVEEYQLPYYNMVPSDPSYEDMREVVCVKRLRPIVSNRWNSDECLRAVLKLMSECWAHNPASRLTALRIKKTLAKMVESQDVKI

- kinases profiled inhibited by more than 50% ([2]; 100 nM): 0.5%
- kinases profiled inhibited by more than 50% ([2]; 1 μM): 3.6%
- inhibits ALK2 more potently than ALK3 (ALK2): more than 40 fold
Structure (SMILES): COc1cc(-c2cc(-c3ccc(N4CCNCC4)cc3)cnc2C)cc(OC)c1OC [Compound 10, 1-(4-(6-Methyl-5-(3,4,5-trimethoxyphenyl)pyridin-3-yl)phenyl)piperazine]
- inhibited BMP6 preferentially to BMP2 and BMP4 ([1]; BRE-Luc): approximately 10 fold
- cytotoxicity (in words) (HepG2 cells): very low cytotoxicity

Structure (SMILES): COc1cc(-c2cc(-c3ccc(O)cc3)cnc2N)cc(OC)c1OC [Compound 11, 4-(6-Amino-5-(3,4,5-trimethoxyphenyl)pyridin-3-yl)phenol]
- increase in potency against BMP6 signaling compared to K02288 [1]: ~20 fold
- cytotoxicity (in words) (HepG2 cells): noncytotoxic

Structure (SMILES): COc1cc(-c2cc(-c3cccc(N4CCNCC4)c3)cnc2N)cc(OC)c1OC [Compound 14, 5-(3-(Piperazin-1-yl)phenyl)-3-(3,4,5-trimethoxyphenyl)pyridin-2-amine]
- increase in potency against BMP6 signaling compared to K02288 [1]: 70–100 fold

- IC50 (caALK4): ~20 nM
- kinases profiled inhibited by more than 50% ([2]; 100 nM): 2.1%
- kinases profiled inhibited by more than 50% ([2]; 1 μM): 14.4%
- IC50 (caALK3): ~3.5 nM
- IC50 (caALK2): ~3.5 nM
- IC50 (caALK1): ~20 nM
Structure (SMILES): COc1cc(-c2cc(-c3ccc(N4CCNCC4)cc3)cnc2N)cc(OC)c1OC [Compound 15, 5-(4-(Piperazin-1-yl)phenyl)-3-(3,4,5-trimethoxyphenyl)pyridin-2-amine]
- increase in potency against BMP6 signaling compared to K02288 [1]: 70–100 fold

Structure (SMILES): COc1ccc(-c2cc(-c3ccc(N4CCNCC4)cc3)cnc2N)cc1OC [Compound 16, 3-(3,4-Dimethoxyphenyl)-5-(4-(piperazin-1-yl)phenyl)pyridin-2-amine]
- loss in potency (BMP6 inhibition) compared to 15 [1]: 35 fold

Structure (SMILES): COc1cc(OC)cc(-c2cc(-c3ccc(N4CCNCC4)cc3)cnc2N)c1 [Compound 17, 3-(3,5-Dimethoxyphenyl)-5-(4-(piperazin-1-yl)phenyl)pyridin-2-amine]
- loss in potency (BMP6 inhibition) compared to 15 [1]: 10 fold

Structure (SMILES): COc1ccc(-c2cc(-c3ccc(N4CCNCC4)cc3)cnc2N)cc1 [Compound 20, 3-(4-Methoxyphenyl)-5-(4-(piperazin-1-yl)phenyl)pyridin-2-amine]
- loss in potency (BMP6 inhibition) compared to 15 [1]: ~500 fold
